{"source": "patent EP4227307A1", "about": "(Genzyme Corporation, priority 2022, dated 2023)", "note": "Where a name gives a salt, the structure may show the parent alone."}
{"biological_target": "T1, human recombinant 6His-Nterm SHP2 full-length (Thr2-Arg593) (Homo sapiens, UniProt Q06124)", "T1 construct": "6His-Nterm SHP2 full-length (Thr2-Arg593, R&D system); 6His (N); purchased R&D system", "T1 sequence (Q06124 2-593)": "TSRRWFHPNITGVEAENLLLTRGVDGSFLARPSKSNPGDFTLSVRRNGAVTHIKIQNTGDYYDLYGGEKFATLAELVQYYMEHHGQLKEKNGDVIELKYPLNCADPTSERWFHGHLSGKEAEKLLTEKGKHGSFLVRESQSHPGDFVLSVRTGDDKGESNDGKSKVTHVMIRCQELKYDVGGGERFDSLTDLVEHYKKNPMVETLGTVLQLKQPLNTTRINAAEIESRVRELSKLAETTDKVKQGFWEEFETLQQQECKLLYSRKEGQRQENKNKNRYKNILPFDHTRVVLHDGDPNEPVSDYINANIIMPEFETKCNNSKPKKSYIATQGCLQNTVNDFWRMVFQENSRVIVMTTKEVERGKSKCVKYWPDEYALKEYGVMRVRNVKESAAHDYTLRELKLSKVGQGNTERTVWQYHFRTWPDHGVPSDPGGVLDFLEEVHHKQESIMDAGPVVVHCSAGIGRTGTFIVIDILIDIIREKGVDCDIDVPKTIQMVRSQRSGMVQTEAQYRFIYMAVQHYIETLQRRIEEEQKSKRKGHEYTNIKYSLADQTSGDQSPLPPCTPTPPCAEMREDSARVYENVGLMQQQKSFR", "assay": "SHP2 Phosphatase Assay (DiFMUP fluorescence)", "type": "biochemical", "details": "SHP2 0.2 nM pre-incubated with 100 nM bi-phosphorylated activating peptide; compound 1000-0.05 nM, 30 min pre-incubation; DiFMUP 20 µM, 45 min, room temperature; 10-concentration dose-response", "protocol": "Inhibition of SHP2 phosphatase activity was evaluated using human recombinant 6His-Nterm SHP2 full-length (Thr2-Arg593, R&D system), NsCs bi-phosphorylated activating peptide (NH2-LN(pY)AQLWHA(PEG8)LTI(pY)ATIRRF-Amide.acetate, Thermofischer Scientific) and DiFMUP as surrogate phosphatase substrate (Molecular Probes). All reactions were performed at room temperature in 384-well black polystyrene non-binding plate (Corning) with the assay buffer (50 mM HEPES-NaOH pH 7.2, 100 mM NaCl, 0.5 mM EDTA, 0.001% Brij35 including 0.02% BSA and 1 mM DTT added extemporaneously). SHP2 was pre-incubated at least 10 min with the activating peptide (0.2 nM and 100 nM, respectively). 10 µL of this mixture was added to the assay plate, that already contained 15 nL of the compound (1000-0.05 nM). After 30 min pre-incubation, the enzymatic reaction was initiated by the addition of 5 µL DiFMUP in assay buffer without BSA (20 µM). The reaction was stopped by the addition of 15 µL sodium pervanadate solution (100 µM) after 45 min incubation. The fluorescence signal was measured at excitation and emission wavelengths of 350 nm and 450 nm, respectively, using a Pherastar instrument (BMG-LabTech). Percentage of inhibition […] were calculated from the fluorescence signal at 450 nm of the positive and negative control using the following formula: I% = ((signal Max−signal Sample)/(signal Max−signal Min control)) × 100 [formula]\nPositive control (Max): corresponds to the maximum fluorescence signal obtained in the presence of 15 nL DMSO replacing the inhibitor in the pre-incubation step.\nNegative control (Min): corresponds to the minimum signal obtained in the presence of 1 µM of RMC-4550, the structure of which is shown below: [drawing 464]\nThe IC50 were then calculated from a dose-response curve of 10 concentrations of tested compound using the 4-parameter logistic model: I% = A + (C)/(1 + exp(−B×log(X)−M)) [formula]\nThe parameters A and (A+C) are the lower and upper limits, B is the slope of the curve at the inflexion point, M parameter is the logarithm of the abscissa at the inflexion point, and X is the concentration of compound.", "units": {"IC50": "nM"}}
{"smiles": "Cc1cnc2c(c1)[C@@H](N)C1(CCN(c3nc(C)c(-c4ccnc(C)c4Cl)n4nccc34)CC1)C2", "note": "[Compound 43, (5S)-1'-[7-(3-chloro-2-methyl-4-pyridyl)-6-methyl-pyrazolo[1,5-a]pyrazin-4-yl]-3-methyl-spiro[5,7-dihydrocyclopenta[b]pyridine-6,4'-piperidine]-5-amine]", "IC50": 4}
{"smiles": "Cc1cc(-c2c(C)nc(N3CCC4(CC3)Cc3ncccc3[C@H]4N)c3ccnn23)n(C)n1", "note": "[Compound 44, (5S)-1'-[7-(2,5-dimethylpyrazol-3-yl)-6-methyl-pyrazolo[1,5-a]pyrazin-4-yl]spiro[5,7-dihydrocyclopenta[b]pyridine-6,4'-piperidine]-5-amine]", "IC50": 15}
{"smiles": "Cc1nccc(-c2c(C)nc(N3CCC4(CC3)Cc3ncccc3[C@H]4N)c3ccnn23)c1Cl", "note": "[Compound 45, (5S)-1'-[7-(3-cldoro-2-methyl-4-pyridyl)-6-methyl-pyrazolo[1,5-a]pyrazin-4-yl]spiro[5,7-dihydrocyclopenta[b]pyridine-6,4'-piperidine]-5-amine]", "IC50": 8}
{"smiles": "Cc1nc(N2CCC3(CC2)Cc2ncccc2[C@H]3N)c2ccnn2c1-c1cscc1C#N", "note": "[Compound 46, 4-[4-[(5S)-5-aminospiro[5,7-dihydrocyclopenta[b]pyridine-6,4'-piperidine]-1'-yl]-6-methyl-pyrazolo[1,5-a]pyrazin-7-yl]thiophene-3-carbonitrile]", "IC50": 73}
{"smiles": "Cc1nn(C)cc1-c1c(C)nc(N2CCC3(CC2)Cc2ncccc2[C@H]3N)c2ccnn12", "note": "[Compound 47, (5S)-1'-[7-(1,3-dimethylpyrazol-4-yl)-6-methyl-pyrazolo[1,5-a]pyrazin-4-yl]spiro [5,7-dihydrocyclopenta[b]pyridine-6,4'-piperidine]-5-amine]", "IC50": 154}
{"smiles": "CCn1cc(-c2c(C)nc(N3CCC4(CC3)Cc3ncccc3[C@H]4N)c3ccnn23)cn1", "note": "[Compound 48, (5S)-1'-[7-(1-ethylpyrazol-4-yl)-6-methyl-pyrazolo[1,5-a]pyrazin-4-yl]spiro[5,7-dihydrocyclopenta[b]pyridine-6,4'-piperidine]-5-amine]", "IC50": 17}
{"smiles": "Cc1nc(N2CCC3(CC2)Cc2ncccc2[C@H]3N)c2ccnn2c1-c1ccnc(C(F)(F)F)c1", "note": "[Compound 49, (5S)-1'-[6-methyl-7-[2-(trifluoromethyl)-4-pyridyl]pyrazolo[1,5-a]pyrazin-4-yl]spiro[5,7-dihydrocyclopenta[b]pyridine-6,4'-piperidine]-5-amine]", "IC50": 130}
{"smiles": "Cc1nc(N2CCC3(CC2)Cc2ncccc2[C@H]3N)c2ccnn2c1-c1cc2ccccc2n1C", "note": "[Compound 50, (5S)-1'-[6-methyl-7-(1-methylindol-2-yl)pyrazolo[1,5-a]pyrazin-4-yl]spiro[5,7-dihydrocyclopenta[b]pyridine-6,4'-piperidine]-5-amine]", "IC50": 10}
{"smiles": "Cc1nc(N2CCC3(CC2)Cc2ncccc2[C@H]3N)c2ccnn2c1-c1ccccc1F", "note": "[Compound 51, (5S)-1'-[7-(2-fluorophenyl)-6-methyl-pyrazolo[1,5-a]pyrazin-4-yl]spiro[5,7-dihydrocyclopenta[b]pyridine-6,4'-piperidine]-5-amine]", "IC50": 5}
{"smiles": "Cc1ccccc1-c1c(C)nc(N2CCC3(CC2)Cc2ncccc2[C@H]3N)c2ccnn12", "note": "[Compound 52, (5S)-1'-[6-methyl-7-(o-tolyl)pyrazolo[1,5-a]pyrazin-4-yl]spiro[5,7-dihydrocyclopenta[b]pyridine-6,4'-piperidine]-5-amine]", "IC50": 24}
{"smiles": "Cc1nc(N2CCC3(CC2)Cc2ncccc2[C@H]3N)c2ccnn2c1-c1ccc(Cl)s1", "note": "[Compound 53, (5S)-1'-[7-(5-chloro-2-thienyl)-6-methyl-pyrazolo[1,5-a]pyrazin-4-yl]spiro[5,7-dihydrocyclopenta[b]pyridine-6,4'-piperidine]-5-amine]", "IC50": 3}
{"smiles": "Cc1nc(N2CCC3(CC2)Cc2ncccc2[C@H]3N)c2ccnn2c1-c1ccsc1Cl", "note": "[Compound 54, (5S)-1'-[7-(2-chloro-3-thienyl)-6-methyl-pyrazolo[1,5-a]pyrazin-4-yl]spiro[5,7-dihydrocyclopenta[b]pyridine-6,4'-piperidine]-5-amine]", "IC50": 4}
{"smiles": "Cc1nc(N2CCC3(CC2)Cc2ncc(C(F)F)cc2[C@H]3N)c2ccnn2c1-c1cnn(C)c1C", "note": "[Compound 55, (5S)-3-(difluoromethyl)-1'-[7-(1,5-dimethylpyrazol-4-yl)-6-methyl-pyrazolo[1,5-a]pyrazin-4-yl]spiro [5,7-dihydrocyclopenta[b]pyridine-6,4'-piperidine]-5-amine]", "IC50": 30}
{"smiles": "COc1ccc2c(n1)CC1(CCN(c3nc(C)c(-c4ccccc4F)n4nccc34)CC1)[C@@H]2N", "note": "[Compound 56, (5S)-1'-[7-(2-fluorophenyl)-6-methyl-pyrazolo[1,5-a]pyrazin-4-yl]-2-methoxy-spiro[5,7-dihydrocyclopenta[b]pyridine-6,4'-piperidine]-5-amine]", "IC50": 17}
{"smiles": "[2H]c1c([2H])c([2H])c(-c2c(C)nc(N3CCC4(CC3)Cc3ncccc3[C@H]4N)c3ccnn23)c([2H])c1[2H]", "note": "[Compound 57, (5S)-1'-[6-methyl-7-(2,3,4,5,6-pentadeuteriophenyl)pyrazolo [1,5-a]pyrazin-4-yl]spiro[5,7-dihydrocyclopenta[b]pyridine-6,4'-piperidine]-5-amine]", "IC50": 10}
{"smiles": "Cc1nc(N2CCC3(CC2)Cc2cc(CO)ncc2[C@H]3N)c2ccnn2c1-c1ccccc1F", "note": "[Compound 59, [(7S)-7-amino-1'-[7-(2-fluorophenyl)-6-methyl-pyrazolo[1,5-a]pyrazin-4-yl]spiro[5,7-dihydrocyclopenta[c]pyridine-6,4'-piperidine]-3-yl]methanol]", "IC50": 11}
{"smiles": "Cc1cc2c(cn1)[C@@H](N)C1(CCN(c3nc(C)c(-c4ccccc4F)n4nccc34)CC1)C2", "note": "[Compound 60, (7S)-1'-[7-(2-fluorophenyl)-6-methyl-pyrazolo[1,5-a]pyrazin-4-yl]-3-methyl-spiro[5,7-dihydrocyclopenta[c]pyridine-6,4'-piperidine]-7-amine]", "IC50": 7}
{"smiles": "Cc1nc(N2CCC3(CC2)Cc2nc(C(F)F)ccc2[C@H]3N)c2ccnn2c1-c1cnn(C)c1C", "note": "[Compound 61, (5S)-2-(difluoromethyl)-1'-[7-(1,5-dimethylpyrazol-4-yl)-6-methyl-pyrazolo[1,5-a]pyrazin-4-yl]spiro [5,7-dihydrocyclopenta[b]pyridine-6,4'-piperidine]-5-amine]", "IC50": 211}
{"smiles": "COc1ccc2c(c1)CC1(CCN(c3nc(C)c(-c4cnn(C)c4C)n4nccc34)CC1)[C@@H]2N", "note": "[Compound 62, (1S)-1'-[7-(1,5-dimethylpyrazol-4-yl)-6-methyl-pyrazolo[1,5-a]pyrazin-4-yl]-5-methoxy-spiro[indane-2,4'-piperidine]-1-amine]", "IC50": 17}
{"smiles": "Cc1nc(N2CCC3(CC2)Cc2nccnc2[C@H]3N)c2ccnn2c1-c1ccccc1F", "note": "[Compound 63, (5S)-1'-[7-(2-fluorophenyl)-6-methyl-pyrazolo[1,5-a]pyrazin-4-yl]spiro[5,7-dihydrocyclopenta[b]pyrazine-6,4'-piperidine]-5-amine]", "IC50": 112}
{"smiles": "Cc1nc(N2CCC3(CC2)Cc2c(F)cccc2[C@H]3N)c2ccnn2c1-c1ccccc1F", "note": "[Compound 64, (1S)-4-Fluoro-1'-[7-(2-fluorophenyl)-6-methyl-pyrazolo[1,5-a]pyrazin-4-yl]spiro[indane-2,4'-piperidine]-1-amine hydrochloride]", "IC50": 46}
{"smiles": "Cc1nc(N2CCC3(CC2)Cc2scnc2[C@H]3N)c2ccnn2c1-c1cccc(F)c1F", "note": "[Compound 65, (4S)-1'-[7-(2,3-difluorophenyl)-6-methyl-pyrazolo[1,5-a]pyrazin-4-yl]spiro[4,6-dihydrocyclopenta[d]thiazole-5,4'-piperidine]-4-amine hydrochloride]", "IC50": 22}
